In US8153630B2, “Kinase inhibitors” (Miikana Therapeutics, Inc., priority 2004, dated 2012):

What was measured:
HCT 116 Cells = test: Aurora kinase whole cell cytotoxicity assay: Sulforhodamine B; format: cell-based; settings: Homo sapiens, HCT116, SRB staining, 96 hours incubation
Method: Human tumour-derived cell lines, HCT116 or MCF7 (ATCC) were plated in a 96 well plate in DMEM containing 10% fetal bovine serum and 2 mM L-glutamine at a density of 500 HCT116 cells or 1,000 MCF7 cells per well and incubated at 37° C., 5% CO2, for 24 hours prior to the addition of experimental compounds. Compounds were added using the dilution series indicated to duplicate plates and the cells were incubated in media plus compound for 96 hours. An additional plate was fixed in 10% TCA at the time of the addition of compound to provide a measurement of the cell population at time zero, the time of drug addition. Following the 96 hour incubation, cells were fixed in situ by gently aspirating off the culture media and then adding 50 ul of ice cold 10% TCA per well and incubation at 4° C. for 60 minutes. The plates were washed with tap water five times and allowed to air dry for 5 minute. 50 ul of a 0.4% (w/v) Sulforhodamine B solution in 1% (v/v) acetic acid was added per well and the cells were incubated for 30 minutes at room temperature. Following staining, plates were washed four times with 1% acetic acid to remove any unbound dye and then allowed to air dry for 5 minutes. The stain was solubilized with 100 ul of 10 mM Tris pH 10.5 per well and placed on an orbital rotator for 5 minutes. The absorbance was read at 570 nm. Percentage growth was calculated using the absorbance readings from the time zero plate (Tz) and the dilution series plate […] which included a column of cells grown in media without compound as a control (C) using the formulas: [(Ti−Tz)/(C−Tz)]×100 for concentrations for which Ti>/=Tz [(Ti−Tz)/Tz]×100 for concentrations for which Ti<Tz.
Three dose response parameters were calculated for each experimental agent. Growth inhibition of 50% (GI50) was calculated from [(Ti−Tz)/(C−Tz)]×100=50, which was the drug concentration resulting in a 50% reduction in the net protein increase (as measured by SRB staining) in control cells during the drug incubation. The drug concentration resulting in total growth inhibition (TGI) was calculated from Ti=Tz. The LC50 (concentration of drug resulting in a 50% reduction in the measured protein at the end of the drug treatment as compared to that at the beginning) indicating a net loss of cells following treatment ws calculated from [(Ti−Tz)/Tz]×100=−50. Values are calculated for each of these three parameters if the level of activity was reached; however, if the effect was not reached or was exceeded, the value for that parameter is expressed as greater or less than the maximum or minimum concentration tested.

recombinant Aurora A = target: T1, recombinant Aurora A (Homo sapiens, UniProt O14965); test: PanVera Z'-Lyte Aurora kinase assay; format: biochemical; settings: Z'-Lyte Ser/Thr 1 peptide 2 μM, ATP 10 μM, 1 h
T1 construct: purchased Upstate, Lake Placid, N.Y
T1 sequence (O14965 1-403): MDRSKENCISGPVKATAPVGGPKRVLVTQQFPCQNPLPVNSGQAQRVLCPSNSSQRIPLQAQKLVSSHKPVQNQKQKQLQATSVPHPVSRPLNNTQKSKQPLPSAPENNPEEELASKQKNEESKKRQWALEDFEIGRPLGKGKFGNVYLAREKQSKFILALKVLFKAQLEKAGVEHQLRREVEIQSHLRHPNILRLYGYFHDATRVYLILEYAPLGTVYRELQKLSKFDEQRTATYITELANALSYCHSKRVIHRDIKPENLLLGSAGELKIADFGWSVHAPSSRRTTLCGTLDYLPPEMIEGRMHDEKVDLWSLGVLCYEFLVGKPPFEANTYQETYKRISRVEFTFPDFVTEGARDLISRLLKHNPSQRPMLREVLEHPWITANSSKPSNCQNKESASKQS
Method: Compounds 7-14 above were tested for their potency against recombinant Aurora A (Upstate, Lake Placid, N.Y.) using the PanVera Z'-Lyte kinase assay kit—Ser/Thr 1 peptide (Invitrogen, Carlsbad, Calif.). Assays were carried out in kinase assay buffer (50 mM HEPES, pH 7.5, 10 mM MgCl2, 5 mM EGTA, 0.05% Brij-35, 2 mM DTT). Test compounds were initially dissolved in DMSO at 100× the highest tested concentration, then serially diluted to 4× test concentrations in kinase assay buffer. Next, Aurora A (final concentration 200-500 ng/mL), Z′-Lyte Ser/Thr 1 peptide (final concentration 2 μM) and ATP (final concentration 10 μM) were added according to the manufacturer's instructions. Assays were carried out in half-area 96-well white polystyrene assay plates (Corning, Corning, N.Y.) in a final volume of 20 μL. The reaction was allowed to proceed for 1 h at room temperature in the dark, at which point the development reagent and stop reagent were added according to the manufacturer's instructions. Coumarin (Ex. 400 nm, Em. 465 nm) and fluorescein (Ex. 400 nm, Em. 565 nm) fluorescence values were measured on a SpectraFluor Plus plate reader (Tecan, Durham, N.C.). The emission ratio (coumarin/fluorescein) was determined and used to calculate the percent phosphorylation for each well. Wells containing substrate but no kinase and wells containing a phosphopeptide control were used to set 0% and 100% phosphorylation values, respectively. Typically 20-40% of the substrate was phosphorylated in wells without inhibitor. Dose-response curves of relative Aurora A activity vs. inhibitor concentration were plotted with Grafit (Erithacus Software, Horley, Surrey, UK) and used to calculate IC50 values.

Row | SMILES | IC50 (recombinant Aurora A) [nM] | GI50 (HCT 116 Cells) [nM]
1 | CSCCOC(=O)c1nc(Sc2ccc(NC(=O)C3CC3)cc2)nc(Nc2cc(C)[nH]n2)c1N [Compound 41] | < 100 | 100 to 1000
2 | COCCNC(=O)c1nc(Sc2ccc(NC(=O)C3CC3)cc2)nc(Nc2cc(C)[nH]n2)c1N [Compound 43, N-(2-Methoxyethyl) 2-(4-cyclopropanecarboxamidophenylsulfanyl)-5-amino-6-(5-methylpyrazol-3-ylamino)-4-pyrimidinecarboxamide] | < 100 | 100 to 1000
3 | Cc1cc(Nc2nc(Sc3ccc(NC(=O)C4CC4)cc3)nc(C(=O)N3CCOCC3)c2N)n[nH]1 [Compound 44, Morpholin-4-yl 2-(4-cyclopropanecarboxamidophenylsulfanyl)-5-amino-6-(5-methylpyrazol-3-ylamino)-4-pyrimidinecarboxamide] | < 100 | 1000 to 10000
4 | Cc1cc(Nc2nc(Sc3ccc(NC(=O)C4CC4)cc3)nc(C(=O)N3CCSCC3)c2N)n[nH]1 [Compound 45, Thiomorpholin-4-yl 2-(4-cyclopropanecarboxamidophenylsulfanyl)-5-amino-6-(5-methylpyrazol-3-ylamino)-4-pyrimidinecarboxamide] | < 100 | 1000 to 10000
5 | Cc1cc(Nc2nc(Sc3ccc(NC(=O)C4CC4)cc3)nc(C(=O)OC3CCN(C)CC3)c2N)n[nH]1 [Compound 47, 1-Methylpiperidin-4-yl 2-(4-cyclopropanecarboxamidophenylsulfanyl)-5-amino-6-(5-methylpyrazol-3-ylamino)-4-pyrimidinecarboxylate] | < 100 | 100 to 1000
6 | Cc1cc(Nc2nc(Sc3ccc(NC(=O)C4CC4)cc3)nc(C(=O)Nc3ccncc3)c2N)n[nH]1 [Compound 51, N-Pyridin-4-yl 2-(4-cyclopropanecarboxamidophenylsulfanyl)-5-amino-6-(5-methylpyrazol-3-ylamino)-4-pyrimidinecarboxamide] | < 100 | 1000 to 10000
7 | CSCCNC(=O)c1nc(Sc2ccc(NC(=O)C3CC3)cc2)nc(Nc2cc(C)[nH]n2)c1N [Compound 56, N-(2-Methylthioethyl) 2-(4-cyclopropanecarboxamidophenylsulfanyl)-5-amino-6-(5-methylpyrazol-3-ylamino)-4-pyrimidinecarboxamide] | < 100 | 100 to 1000
8 | Cc1cc(Nc2nc(Sc3ccc(NC(=O)C4CC4)cc3)nc(C(=O)NC(C)(C)C)c2N)n[nH]1 [Compound 57, N-(tert-Butyl) 2-(4-cyclopropanecarboxamidophenylsulfanyl)-5-amino-6-(5-methylpyrazol-3-ylamino)-4-pyrimidinecarboxamide] | 100 to 1000 | 1000 to 10000

Further lines, with some results ahead:

Row | IC50 (recombinant Aurora A) [nM] | SMILES | GI50 (HCT 116 Cells) [nM]
9 | < 100 | COCCOC(=O)c1nc(Sc2ccc(NC(=O)C3CC3)cc2)nc(Nc2cc(C)[nH]n2)c1N [Compound 40, 2-Methoxyethyl 2-(4-cyclopropanecarboxamidophenylsulfanyl)-5-amino-6-(5-methylpyrazol-3-ylamino)-4-pyrimidinecarboxylate] | 100 to 1000
10 | < 100 | Cc1cc(Nc2nc(Sc3ccc(NC(=O)C4CC4)cc3)nc(C(=O)OC3CCCCC3)c2N)n[nH]1 [Compound 42, Cyclohexyl 2-(4-cyclopropanecarboxamidophenylsulfanyl)-5-amino-6-(5-methylpyrazol-3-ylamino)-4-pyrimidinecarboxylate] | 100 to 1000
11 | < 100 | Cc1cc(Nc2nc(Sc3ccc(NC(=O)C4CC4)cc3)nc(C(=O)OCCN(C)C)c2N)n[nH]1 [Compound 46, 2-Dimethylaminoethyl 2-(4-cyclopropanecarboxamidophenylsulfanyl)-5-amino-6-(5-methylpyrazol-3-ylamino)-4-pyrimidinecarboxylate] | 100 to 1000
12 | < 100 | Cc1cc(Nc2nc(Sc3ccc(NC(=O)C4CC4)cc3)nc(C(=O)OCCN3CCCCC3)c2N)n[nH]1 [Compound 48, 2-Piperidin-1-ylethyl 2-(4-cyclopropanecarboxamidophenylsulfanyl)-5-amino-6-(5-methylpyrazol-3-ylamino)-4-pyrimidinecarboxylate] | 1000 to 10000
13 | < 100 | Cc1cc(Nc2nc(Sc3ccc(NC(=O)C4CC4)cc3)nc(C(=O)OC(C)C)c2N)n[nH]1 [Compound 49, Isopropyl 2-(4-cyclopropanecarboxamidophenylsulfanyl)-5-amino-6-(5-methylpyrazol-3-ylamino)-4-pyrimidinecarboxylate] | 100 to 1000
14 | < 100 | Cc1cc(Nc2nc(Sc3ccc(NC(=O)C4CC4)cc3)nc(C(=O)OCCO)c2N)n[nH]1 [Compound 50, 2-Hydroxyethyl 2-(4-cyclopropanecarboxamidophenylsulfanyl)-5-amino-6-(5-methylpyrazol-3-ylamino)-4-pyrimidinecarboxylate] | 1000 to 10000
15 | < 100 | Cc1cc(Nc2nc(Sc3ccc(NC(=O)C4CC4)cc3)nc(C(=O)N3CCCCC3)c2N)n[nH]1 [Compound 53, Piperidin-1-yl 2-(4-cyclopropanecarboxamidophenylsulfanyl)-5-amino-6-(5-methylpyrazol-3-ylamino)-4-pyrimidinecarboxamide] | 100 to 1000
16 | < 100 | Cc1cc(Nc2nc(Sc3ccc(NC(=O)C4CC4)cc3)nc(C(=O)NCC3CCCO3)c2N)n[nH]1 (centres unmarked) [Compound 54, N-(Tetrahydrofuran-2-ylmethyl) 2-(4-cyclopropanecarboxamidophenylsulfanyl)-5-amino-6-(5-methylpyrazol-3-ylamino)-4-pyrimidinecarboxamide] | 100 to 1000
17 | < 100 | COCCCNC(=O)c1nc(Sc2ccc(NC(=O)C3CC3)cc2)nc(Nc2cc(C)[nH]n2)c1N [Compound 55, N-(3-Methoxypropyl) 2-(4-cyclopropanecarboxamidophenylsulfanyl)-5-amino-6-(5-methylpyrazol-3-ylamino)-4-pyrimidinecarboxamide] | 100 to 1000
18 | < 100 | Cc1cc(Nc2nc(Sc3ccc(NC(=O)C4CC4)cc3)nc(C(=O)NCc3ccco3)c2N)n[nH]1 [Compound 58, N-(2-Furylmethyl) 2-(4-cyclopropanecarboxamidophenylsulfanyl)-5-amino-6-(5-methylpyrazol-3-ylamino)-4-pyrimidinecarboxamide] | 1000 to 10000
19 | < 100 | Cc1cc(Nc2nc(Sc3ccc(NC(=O)C4CC4)cc3)nc(C(=O)NCc3cccs3)c2N)n[nH]1 [Compound 59, N-(2-Thien-2-ylmethyl) 2-(4-cyclopropanecarboxamidophenylsulfanyl)-5-amino-6-(5-methylpyrazol-3-ylamino)-4-pyrimidinecarboxamide] | 1000 to 10000
